Consider 1 substance from PMC11667234, “CD63 as novel target for nanoemulsion-based ^19F MRI imaging and drug delivery to activated cardiac fibroblasts” (Theranostics, 2025).

In one experiment the test system is human monocytes (THP1). Description: Peptide binding by flow cytometry (6-FAM fluorescence). The experiment is classed as cell-based. The following applies: 30 min, 37°C, 6-FAM MFI, n = 3 replicates. The protocol: (§1) To study the in vitro binding of 6-FAM-conjugated peptides (see above) we used the following cells: mouse EpiSC and cardiac fibroblasts prepared as described above, normal human dermal fibroblasts (NHDF) from juvenile foreskin, and human monocytes (THP-1). In addition, we used primary human cardiac fibroblasts which were prepared by outgrowth culture technique from a heart sample of a patient with terminal heart failure undergoing orthotopic heart transplant surgery, kindly provided by the Cardiac Surgery Department of the University Hospital Düsseldorf, Düsseldorf, Germany. A tissue sample weighing about ~5 g was removed from the failing heart's apex and placed in cooled BIOPS buffer to be divided into tiny pieces for subsequent culture to allow cell outgrowth in a 6‑well plate with DMEM (low glucose), 20% FBS, and 1% penicillin-streptomycin. The medium was replaced every 2 days and biopsy pieces were discarded after 5 days. After 14 days, cells reached a confluence of about 80% and were then passed to T75 cell culture flasks.
(§2) The binding assay was performed as follows: Cells were detached with PBS-EDTA (5 mM) for 10 min at 37°C and centrifuged at 500 × g for 5 min. Afterwards, 5 µg of synthesized peptide (see above) was added to 800 µL (0.5 x 10^6 cells) of the cell suspension and incubated for 30 min at 37°C. To control the specific targeting of the EP9 peptide, scrambled and mutated peptides were used as negative controls. Subsequently, 200 µL of the cell suspension were washed in 2 mL MACS buffer (2 % FBS and 1 mM EDTA in PBS) and centrifuged at 500 × g for 5 min and the supernatant was discarded. One additional washing step was performed by resuspending the cell pellet in 200 µL of MACS buffer and centrifugation at 500 × g for 5 min. After discarding the supernatant, the cell pellet was resuspended in 200 µL of 4′6-diamidino-2-phenylindole dichlorhydrate (DAPI) (Merck, Darmstadt, Germany) (1 µg/mL) to allow discrimination of dead cells. Flow cytometric analysis was performed using a BD FACS Canto II flow cytometer (BD Biosciences, Franklin Lakes, NJ, USA).
(In general: A flow cytometer gives signals particle by particle.)

For another experiment, the system named is mouse EpiSC. Described as above. The experiment is classed as cell-based. The following applies: EpiSC from hearts 5 days after MI, 5 µg peptide, 30 min, 37°C, 6-FAM MFI, n = 3 hearts. The protocol: as §1, §2
In experiment [1] the test system is primary human cardiac fibroblasts. The description is as above. The experiment is classed as cell-based. The following applies: outgrowth culture, patient with terminal heart failure, 30 min, 37°C, 6-FAM MFI, n = 2 replicates. As to the method:
as §1, §2

For experiment [2], the system named is rat epicardial stromal cells (EpiSC). The following applies: cultured EpiSC from infarcted rat hearts; cited from earlier work. The source says: Using bacterial phage display screening, our previous work identified five small peptides that bound to cultured EpiSC, isolated from infarcted rat hearts, with high affinity. […] In the present study, we first aimed to assess the potential of EP9 for in vivo imaging of epicardial and myocardial stromal cells (fibroblasts) in the post-MI mouse heart. To this end, we coupled EP9 to a ^19F-containing PFC-NE (EP9-PFC-NE), designed for the in vivo labeling of cardiac cells (Figure 1). At 5 days post-MI (50 min ischemia/reperfusion), 150 µL of EP9-PFC-NE were injected into the tail vein of infarcted mice. PFC-NE coupl ... || page 3: Figure S2. Binding of peptide EP9 in comparison to control peptides to mouse cardiac fibroblasts and human monocytes (THP1). The binding of peptide EP9 in comparison to EP9-derived scrambled and mutated (MUT) peptides (see Table S1), as well as a negative control peptide (Negative) with low affinity to cardiac stromal cells (as previously assessed: peptide EP50), was evaluated by flow cytometry after 30 min of incubation in vitro. 6-FAM fluorescence signal of the peptides at the surface of mouse cardiac fibroblasts isolated from hearts 5 days after MI (n = 3 hearts) and human mono ...

“Also recorded” adds a separate entry of the source.

For the substance “Ac-KLMLPRPGGGKC-NH2 [EP9, 7-amino acid peptide KLMLPRP with glycine spacer GGGK(FAM)C, from phage display on rat EpiSC]”, the “binding to human monocytes (THP1)” value in the experiment on human monocytes (THP1) was “no discernible binding; also recorded: only negligible binding”. In addition, the “binding to cultured mouse EpiSC” value in the experiment with mouse EpiSC is listed as “superior binding”. Further, in experiment [1], the “binding to primary human cardiac fibroblasts” value is on record as “high binding”. The “binding affinity to rat EpiSC” value in experiment [2] is “high binding affinity; also recorded: highest affinity and specificity”.
